Experimental data published in US12295937B2, “Psychoactive medicines and their use for treating psychiatric and neurological conditions and disorders” (Transcend Therapeutics, Inc., priority 2021, dated 2025).

Assays:
[1] = rats, intraperitoneal; cited from earlier work
[2] = Mouse head-twitch response (HTR) test; format: in vivo; details: i.p., HTR measured for 10 minutes
Experimental: Head twitch response (HTR) was evaluated using C57BL/6J mice (ages 7-10 weeks). Mice were ear tagged at least three days after arrival to the animal facility and allowed to rest for at least three days before behavioral testing. Small magnets (SuperMagnetMan—N45 magnet 3 mm diameter, 0.5 mm thickness) were glued to car tags (Stoelting—La Pias Aluminum Ear Tags) at least two days before mice were car tagged. The experimental setup was adapted from Gonzales-Macso (de la Fuente Revenga et al., 2019) and Kwan (Jefferson et al., 2022; Savalia et al., 2021), including experimental apparatus and MATLAB code for analysis.
Doses were randomly assigned, and age-matched controls were injected with vehicle and randomly interspersed with drug conditions. At least three animals per sex were used for each drug dose and condition. If animals were used in multiple HTR experiments, experimental sessions took place at least one week apart. Two animals were run at a time. Immediately after i.p. injection of psychedelic or entactogen drug, animals were placed in separate plastic boxes within a larger chamber (Home Depot—28 in. W×32 in. H×21.5 in. D), and HTR was measured for 10 minutes. A small lamp was placed in the back of the larger chamber, and a high-speed camera (Basler-Aca 1920-155 μm) was suspended from the ceiling to record video of the animals in the plastic boxes. […]

[3] = Rat Forced Swim Test (FST); format: in vivo; details: for Reduction in immobility: single dose 30 min before test
Description: The Forced Swim Test (FST) is a classic, and the most used preclinical behavioral assay to screen compounds with antidepressant-like activity and has high predictive and face validity (Porsolt et al. (1977) Nature 266:730; Borsini and Meli (1988) Psychopharmacology 94:147). The premise of the FST is that when rats are placed into a cylinder filled with water, they will initially try to escape, but over time will become immobile. This increased immobility reflects behavioral despair, modeling a depressive-like state.
Forced Swim Test (EST): In the FST trial, rats were placed in a circular plexiglass container filled with water, with no means of escape. Water temperature was maintained at 22-25° C. and changed for every animal. After an acclimation period, rats were timed for inactivity (failure to struggle), activity, swim time and climbing time. Day 1 consisted of a 15 min acclimation trial, and Day 2 (24 h later) consisted of the 5 min test. A time sampling procedure was employed where animals were observed every 5 sec and scored for immobility, swimming, or climbing. Fluoxetine (10 mg/kg, IP, Sigma Aldrich) or 0.9% sterile saline vehicle (vehicle 3× group) were administered 23.5, 5, and 1 h before testing in the FST. […] The experimenter was blinded to treatment.
Forced Swim Test: In the FST trial, rats were placed in a circular plexiglass container filled with water, with no means of escape. Water temperature was maintained at 22-25° C. and changed for every animal. After an acclimation period, rats were timed for inactivity (failure to struggle), activity, swim time and climbing time. Day 1 consisted of a 15 min acclimation trial, and Day 2 (24 h later) consisted of the 5 min test. A time sampling procedure was employed where animals were observed every 5 sec and scored for immobility, swimming, or climbing. Fluoxetine (10 mg/kg, IP, Sigma Aldrich) or 0.9% sterile saline vehicle (vehicle 3× group) were administered 23.5, 5, and 1 h before testing in the FST. 2C-B (2.5, 10, or 20 mg/kg, IP, Cayman Chemical) or 0.9% saline vehicle (vehicle 1× group) were administered 30 min prior to FST testing. The experimenter was blinded to treatment.
Drug Treatment: Fluoxetine (10 mg/kg, IP, Sigma Aldrich) or 0.9% sterile saline vehicle were administered 23.5, 5, and 1 h before testing in the FST. […] Control animals received fluoxetine alone, methylone alone, or saline vehicle.
Forced Swim Test: In the FST trial, rats were placed in a circular plexiglass container filled with water, with no means of escape. Water temperature was maintained at 22-25° C. and changed for every animal. After an acclimation period, rats were timed for inactivity (failure to struggle), activity, swim time and climbing time. The experimenter and scorer were blind to treatment group. Day 1 consisted of a 15 min acclimation trial, and Day 2 (24 h later) consisted of the 5 min test. A time sampling procedure was employed where animals were observed every 5 sec and scored for immobility, swimming, or climbing.
The FST was performed and scored by an experimenter blind to treatment group according to standard protocols and based on a “modified FST” procedure (Slattery and Cryan (2012) Nat Protoc, 7:1009). Briefly, rats were placed in a circular plexiglass container (29.2 cm diameter, 49.5 cm height) filled with water to a depth of 30 cm so rats could not support themselves by touching the bottom of the tank. Water was maintained at 22-25° C. and was changed for every animal. Day 1 (Training) consisted of a 15 min acclimation trial, and Day 2 (Testing, 24 h later) consisted of the 5 min test. A time sampling procedure was employed where animals were observed every 5 seconds for the duration of the test session (60 counts or 5 minutes) and scored for immobility (defined as the failure to struggle), swimming (defined as a circular movement around the tank), or climbing (defined as an upwards escape behavior). […]

CNC(C)C(=O)c1ccc2c(c1)OCO2 (stereo not drawn) [Methylone, 3,4-methylenedioxy-N-methylcathinone]
half-life [1]: 1 to 2 h
Head-twitch behaviors [2]: no effect on head-twitch behaviors at any dose tested
Reduction in immobility ([3]; 15 mg/kg IP): 99%
Antidepressant-like effect vs. vehicle ([3]; 15 mg/kg PO, 2 hours before test): significant antidepressant-like effect
Reduction in immobility ([3]; 30 mg/kg IP): 96%
Reduced immobility vs. vehicle ([3]; Methylone 5 mg/kg IP after three prior doses of fluoxetine 10 mg/kg): 62%
Reduced immobility vs. vehicle ([3]; Methylone alone 5 mg/kg IP (Example 8)): 71%
Climbing behavior ([3]; doses as worded): significantly increased climbing behavior
Swimming behavior ([3]; doses as worded): Mid and high doses of methylone significantly increased swimming
Climbing behavior ([3]; doses as worded, listed as methylone): Climbing was only increased at the lowest dose of methylone
Antidepressant-like effect of multiple lower doses ([3]; four […] IP doses 20.5, 8.5, 4.5, 0.5 h before test): significant antidepressant-like effects
Immobility vs. saline vehicle ([3]; single dose 5, 10, 15, 20 and 30 mg/kg IP, 30 min before test): significantly reduced immobility
